Converted amounts (≈) assume the structure as drawn. Where two headings read alike, the source gives them in different places. Residues, ends and D or L forms follow the SMILES beside them.
Tests used:
[1] = system: Caco-2 cells (human intestinal epithelial cells); test: Membrane strengthening experiment (TER recovery of barrier function after TNF-α); assay type: cell-based; conditions: for function of strengthening the barrier function (membrane-strengthening ability): result in words, FIG. 1A-1H
[2] = system: Enterococcus faecalis AJ110149; test: Minimum inhibitory concentration, spot-on-lawn method; assay type: cell-based
[3] = Chicken growth test (body weight gain and feed conversion ratio); assay type: in vivo, broiler chickens; conditions: 0-3 weeks
Escherichia coli MG1665 = test: Minimum inhibitory concentration, spot-on-lawn method; assay type: cell-based
[4] = system: Bacteroides fragilis JCM11019; test: as above; assay type: cell-based
[5] = system: Lactobacillus salivarius AJ110152; test: as above; assay type: cell-based; conditions: for MIC: Ligilactobacillus salivarius
[6] = system: Salmonella enterica AJ2785; test: microbe, parasite or virus in culture; assay type: cell-based; conditions: for MIC: Salmonella enterica, AJ2785, read-out: Minimum inhibitory concentration
[7] = system: Lactobacillus acidophilus AJ13778; test: Minimum inhibitory concentration, spot-on-lawn method; assay type: cell-based
[8] = system: Clostridium perfringens AJ3350; test: microbe, parasite or virus in culture; assay type: cell-based; conditions: for Minimum inhibitory concentration: indicator strain Clostridium perfringens AJ3350, GAM, 37° C.; for MIC: Clostridium perfringens, AJ3350, read-out: Minimum inhibitory concentration
[9] = system: Bifidobacterium thermophilum AJ110569; test: Minimum inhibitory concentration, spot-on-lawn method; assay type: cell-based
[10] = indicator strain Enterococcus faecalis AJ110149, MRS, 30° C., ND = no effect detected
[11] = Table 3, addition 10 ppm in feed, negative control = 100
[12] = Table 4, addition 10 ppm in feed
[13] = Table 6, addition 10 ppm, NC = 100%, listed as PC1 (W/Avilamycin)
[14] = Table 6, addition 10 ppm, NC = 100%, listed as PC2 (W/Avilamycin)
[15] = indicator strain Escherichia coli MG1665, LB, 37° C.
[16] = material conc. 10 uM, TER barrier function recovery, 24 h
[17] = material conc. 10 uM, comparison value with Ctr (TNFα alone), 24 h, 1.1 or more = membrane-strengthening ability
[18] = indicator strain Bacteroides fragilis JCM11019, GAM, 37° C.
[19] = indicator strain Lactobacillus salivarius AJ110152, MRS, 37° C.
[20] = indicator strain Lactobacillus acidophilus AJ13778, MRS, 37° C.
[21] = indicator strain Bifidobacterium thermophilum AJ110569, GAM, 37° C.
[22] = Escherichia coli, MG1665, read-out: Minimum inhibitory concentration
[23] = indicator strain Bacteroides fragilis JCM11019, GAM, 37° C., read-out: Minimum inhibitory concentration
[24] = indicator strain Lactobacillus salivarius AJ110152, MRS, 37° C., read-out: Minimum inhibitory concentration
[25] = indicator strain Lactobacillus acidophilus AJ13778, MRS, 37° C., read-out: Minimum inhibitory concentration
[26] = indicator strain Bifidobacterium thermophilum AJ110569, GAM, 37° C., read-out: Minimum inhibitory concentration
[27] = indicator strain Escherichia coli MG1665, LB, 37° C., read-out: Minimum inhibitory concentration
[28] = indicator strain Enterococcus faecalis AJ110149, MRS, 30° C., ND = no effect detected, read-out: Minimum inhibitory concentration
[29] = material conc. 1 uM, comparison value with Ctr (TNFα alone), 24 h
[30] = Homo sapiens, Caco-2, 24 h, read-out: Recovery ratio (%)

CC1=C(/C=C/C(C)=C/C=C/C(C)=C/C=C/C=C(C)/C=C/C=C(C)/C=C/C2=C(C)C(=O)[C@@H](O)CC2(C)C)C(C)(C)C[C@H](O)C1=O [Astaxanthin, astaxanthin]
activity at 10 µg/mL ([1]; Homo sapiens, Caco-2, material conc. 10 mg/L, TER barrier function recovery, 24 h, read-out: Recovery ratio (%)): 132%
Recovery ratio/ctr ([1]; material conc. 10 mg/L, comparison value with Ctr (TNFα alone), 24 h): 1.14
function of strengthening the barrier function (membrane-strengthening ability) [1]: observed to have the function of strengthening the barrier function

COC[C@H]1O[C@@H](OC2OC[C@@H]3O[C@]4(O[C@H]3[C@H]2OC(=O)C(C)C)O[C@H](C)[C@@](O)(C(C)=O)[C@@H]2OCO[C@H]24)[C@@H](OC)[C@@H](O)[C@@H]1O[C@@H]1O[C@H](C)[C@H](OC)[C@H](O[C@H]2C[C@@]3(C)OC4(C[C@@H](O)[C@H](O[C@H]5C[C@@H](O)[C@H](OC(=O)c6c(C)c(Cl)c(O)c(Cl)c6OC)[C@@H](C)O5)[C@@H](C)O4)O[C@@H]3[C@@H](C)O2)[C@H]1O (some centres unmarked) [Avilamycin, avilamycin]
Minimum inhibitory concentration [2, 10]: 2000 µg/mL (≈ 1.42 mM)
BWG [3, 11]: 110%
FCR [3, 11]: 96%
BWG [3, 12]: 107%
FCR [3, 12]: 95%
BWG [3, 13]: 104%
FCR [3, 13]: 97%
BWG [3, 14]: 107%
FCR [3, 14]: 94%
Minimum inhibitory concentration (Escherichia coli MG1665; [15]): >100000 µg/mL
Recovery ratio (%) [1, 16]: 127%
Recovery ratio/ctr [1, 17]: 1.10
function of strengthening the barrier function (membrane-strengthening ability) [1]: had a function of strengthening the barrier function even at a low concentration
Minimum inhibitory concentration [4, 18]: 8000 µg/mL (≈ 5.7 mM)
Minimum inhibitory concentration [5, 19]: 8000 µg/mL (≈ 5.7 mM)
Minimum inhibitory concentration [6]: >100000 µg/mL
Minimum inhibitory concentration [7, 20]: 16000 µg/mL (≈ 11.4 mM)
Minimum inhibitory concentration [8]: 1000 µg/mL (≈ 0.712 mM)
Minimum inhibitory concentration [9, 21]: 16000 µg/mL (≈ 11.4 mM)

CC[C@H](C)[C@H](N)C1=N[C@H](C(=O)N[C@@H](CC(C)C)C(=O)N[C@H](CCC(=O)O)C(=O)N[C@H](C(=O)N[C@H]2CCCCNC(=O)[C@H](CC(N)=O)NC(=O)[C@@H](CC(=O)O)NC(=O)[C@H](Cc3cnc[nH]3)NC(=O)[C@@H](Cc3ccccc3)NC(=O)[C@H]([C@@H](C)CC)NC(=O)[C@@H](CCCN)NC2=O)[C@@H](C)CC)CS1 [Bacitracin] (HELM PEPTIDE1{[CC[C@H](C)[C@H](N)C1=N[C@H](C(=O)[*:2])CS1].L.[dE].I.K.[NCCC[C@@H](N[*:1])C(=O)[*:2]].I.[dF].H.[dD].N}$PEPTIDE1,PEPTIDE1,5:R3-11:R2$$$V2.0)
MIC (Escherichia coli MG1665; [22]): > 100000 µg/mL
MIC [4, 23]: > 100000 µg/mL
MIC [5, 24]: 32000 µg/mL (≈ 22.5 mM)
MIC [6]: > 100000 µg/mL
MIC [7, 25]: 32000 µg/mL (≈ 22.5 mM)
MIC [9, 26]: 4000 µg/mL (≈ 2.81 mM)

CCCC(=O)O [Butylate, butyric acid]
activity at 2000 µM ([1]; Homo sapiens, Caco-2, material conc. 2.0 mM, TER barrier function recovery, 24 h, read-out: Recovery ratio (%)): 131%
Recovery ratio/ctr ([1]; material conc. 2.0 mM, comparison value with Ctr (TNFα alone), 24 h): 1.13

CN(C)[C@@H]1C(O)=C(C(N)=O)C(=O)[C@@]2(O)C(O)=C3C(=O)c4c(O)ccc(Cl)c4[C@@](C)(O)[C@H]3C[C@@H]12 [Chlortetracycline]
MIC (Escherichia coli MG1665; [27]): 50000 µg/mL (≈ 104 mM)
MIC [4, 23]: 4000 µg/mL (≈ 8.35 mM)
MIC [5, 24]: 3000 µg/mL (≈ 6.26 mM)
MIC [6]: 50000 µg/mL (≈ 104 mM)
MIC [7, 25]: 4000 µg/mL (≈ 8.35 mM)
MIC [8]: 62 µg/mL (≈ 0.129 mM)
MIC [9, 26]: 16000 µg/mL (≈ 33.4 mM)

COc1cc(/C=C/C(=O)CC(=O)/C=C/c2ccc(O)c(OC)c2)ccc1O [Curcumin, curcumin]
activity at 200 µM ([1]; Homo sapiens, Caco-2, material conc. 200 uM, TER barrier function recovery, 24 h, read-out: Recovery ratio (%)): 128%
Recovery ratio/ctr ([1]; material conc. 200 uM, comparison value with Ctr (TNFα alone), 24 h): 1.14

NC(=O)CC[C@H](N)C(=O)O [Glutamine, glutamine]
activity at 20000 µM ([1]; Homo sapiens, Caco-2, material conc. 20 mM, TER barrier function recovery, 24 h, read-out: Recovery ratio (%)): 136%
Recovery ratio/ctr ([1]; material conc. 20 mM, comparison value with Ctr (TNFα alone), 24 h): 1.18

CC[C@@]1([C@@H]2O[C@@H]([C@H]3O[C@@](O)(CO)[C@H](C)C[C@@H]3C)C[C@@H]2C)CC[C@H]([C@]2(C)CC[C@]3(C[C@H](O)[C@@H](C)[C@@H]([C@@H](C)[C@@H](OC)[C@H](C)C(=O)O)O3)O2)O1 [Monensin]
MIC [2, 28]: 2000 µg/mL (≈ 2.98 mM)
MIC (Escherichia coli MG1665; [22]): > 100000 µg/mL
activity at 1 µM ([1]; Homo sapiens, Caco-2, material conc. 1 uM, TER barrier function recovery, 24 h, read-out: Recovery ratio (%)): 126%
Recovery ratio/ctr [1, 29]: 1.13
MIC [5, 24]: 1000 µg/mL (≈ 1.49 mM)
MIC [6]: > 100000 µg/mL
MIC [7, 25]: 2000 µg/mL (≈ 2.98 mM)
MIC [8]: 1000 µg/mL (≈ 1.49 mM)
MIC [9, 26]: 2000 µg/mL (≈ 2.98 mM)

O=C(O)C(O)Cc1ccccc1 (centres unmarked) [Phenyl-lactate, phenyl lactatic acid]
Recovery ratio (%) ([1]; material conc. 0.2 mM, TER barrier function recovery, 24 h): 129%
Recovery ratio/ctr ([1]; material conc. 0.2 mM, comparison value with Ctr (TNFα alone), 24 h): 1.12

CC[C@@H](C(=O)[C@@H](C)[C@@H](O)[C@H](C)[C@@H]1O[C@@H]([C@@H](CC)C(=O)O)CC[C@@H]1C)[C@H]1O[C@]2(C=C[C@@H](O)[C@]3(CC[C@@](C)([C@H]4CC[C@](O)(CC)[C@H](C)O4)O3)O2)[C@H](C)C[C@@H]1C [Salinomycin]
MIC ([2]; Enterococcus faecalis, AJ110149, read-out: Minimum inhibitory concentration): 500 µg/mL (≈ 0.666 mM)
MIC (Escherichia coli MG1665; [22]): > 100000 µg/mL
activity at 1 µM [1, 30]: 124%
Recovery ratio/ctr [1, 29]: 1.10
MIC ([4]; Bacteroides fragilis, JCM11019, read-out: Minimum inhibitory concentration): 64000 µg/mL (≈ 85.2 mM)
MIC ([5]; AJ110152, read-out: Minimum inhibitory concentration): 1000 µg/mL (≈ 1.33 mM)
MIC [6]: > 100000 µg/mL
MIC ([7]; Lactobacillus acidophilus, AJ13778, read-out: Minimum inhibitory concentration): 2000 µg/mL (≈ 2.66 mM)
MIC [8]: 1000 µg/mL (≈ 1.33 mM)
MIC ([9]; Bifidobacterium thermophilum, AJ110569, read-out: Minimum inhibitory concentration): 2000 µg/mL (≈ 2.66 mM)

N[C@@H](Cc1c[nH]c2ccccc12)C(=O)O [Tryptophan, tryptophan]
activity at 4000 µM [1, 30]: 128%
Recovery ratio/ctr ([1]; material conc. 4 mM, comparison value with Ctr (TNFα alone), 24 h): 1.11

CC[C@H]1OC(=O)C[C@@H](O)[C@H](C)[C@@H](O[C@@H]2O[C@H](C)[C@@H](O[C@H]3C[C@@](C)(O)[C@@H](O)[C@H](C)O3)[C@H](N(C)C)[C@H]2O)[C@@H](CC=O)C[C@@H](C)C(=O)/C=C/C(C)=C/[C@@H]1CO[C@@H]1O[C@H](C)[C@@H](O)[C@@H](OC)[C@H]1OC [Tylosin]
MIC [2, 28]: 4000 µg/mL (≈ 4.37 mM)
MIC (Escherichia coli MG1665; [27]): > 100000 µg/mL
activity at 10 µM ([1]; Homo sapiens, Caco-2, material conc. 10 uM, TER barrier function recovery, 24 h, read-out: Recovery ratio (%)): 135%
Recovery ratio/ctr [1, 17]: 1.17
MIC [4, 23]: 4000 µg/mL (≈ 4.37 mM)
MIC [5, 24]: 1000 µg/mL (≈ 1.09 mM)
MIC [6]: > 100000 µg/mL
MIC [7, 25]: 1000 µg/mL (≈ 1.09 mM)
MIC [8]: 4000 µg/mL (≈ 4.37 mM)
MIC [9, 26]: 10 µg/mL (≈ 0.0109 mM)

CC(C)[C@H](N)C(=O)O [Valine, valine]
Recovery ratio/ctr ([1]; 24 h, 200 µM): 1.13
activity at 200 µM ([1]; Homo sapiens, Caco-2, material conc. 0.2 mM, TER barrier function recovery, 24 h, read-out: Recovery ratio (%)): 130%

Colistin
Minimum inhibitory concentration [2, 10]: >100000 µg/mL
Minimum inhibitory concentration (Escherichia coli MG1665; [15]): 4000 µg/mL
Recovery ratio (%) ([1]; material conc. 1 uM, TER barrier function recovery, 24 h): 130%
Recovery ratio/ctr [1, 29]: 1.13
function of strengthening the barrier function (membrane-strengthening ability) [1]: had a function of strengthening the barrier function even at a low concentration
Minimum inhibitory concentration [4, 18]: >100000 µg/mL
Minimum inhibitory concentration [5, 19]: >100000 µg/mL
Minimum inhibitory concentration [6]: >100000 µg/mL
Minimum inhibitory concentration [7, 20]: >100000 µg/mL
Minimum inhibitory concentration [8]: >100000 µg/mL
Minimum inhibitory concentration [9, 21]: 128000 µg/mL

Zinc Bacitracin
Recovery ratio (%) [1, 16]: 124%
Recovery ratio/ctr [1, 17]: 1.10

Reference: patent publication US11857596B2, “Animal feed additive and animal feed” (priority 2018, dated 2024)
